Measured values taken from patent US11021475B2, “Amide-substituted heterocyclic compounds useful as modulators of IL-12, IL-23 and/or IFN alpha responses” (Bristol-Myers Squibb Company, priority 2012, dated 2021).
Like-named read-outs stand apart in the source and are kept apart here.

Assays:
[1] = test system: IL-23 stimulated Kit225 T cells (STAT-dependent luciferase reporter); assay: Kit225 T cell assay, IL-23-stimulated STAT-dependent luciferase reporter; type: cell-based, human; conditions: 20 ng/mL human recombinant IL-23, 5-6 hours, read-out: IL-23 Kit225 Reporter (IC50)
Experimental: (§1) Kit225 T cells with a stably-integrated STAT-dependent luciferase reporter were plated in RPMI (Gibco) containing 10% heat-inactivated FBS (Gibco) and 100 U/mL PenStrep (Gibco). The cells were then stimulated with either 20 ng/mL human recombinant IL-23 or 200 U/mL human recombinant IFNα (PBL InterferonSource) for 5-6 hours. Luciferase expression was measured using the STEADY-GLO® Luciferase Assay System (Promega) according to the manufacturer's instructions. Inhibition data were calculated by comparison to no inhibitor control wells for 0% inhibition and non-stimulated control wells for 100% inhibition.

[2] = test system: IFNα stimulated Kit225 T cells (STAT-dependent luciferase reporter); assay: Kit225 T cell assay, IFNα-stimulated STAT-dependent luciferase reporter; type: cell-based, human; conditions: 200 U/mL human recombinant IFNα, 5-6 hours, read-out: IFNα Kit225 Reporter (IC50)
Experimental: as §1

## CNC(=O)c1nnc(Nc2cc(C)n(C)n2)cc1Nc1cccc(-c2c[nH]nn2)c1OC [Example 193]
[1]
  IC50: 30 nM
[2]
  IC50: 40 nM

## CNC(=O)c1nnc(Nc2cc(C)c(F)cn2)cc1Nc1cccc(-c2ncnn2C)c1OC [Example 180]
[1]
  IC50: 60 nM
[2]
  IC50: 20 nM

## CNC(=O)c1nnc(Nc2ccccn2)cc1Nc1cccc(-c2ncnn2C)c1OC [Example 178]
[1]
  IC50: 30 nM
[2]
  IC50: 10 nM

## CNC(=O)c1nnc(Nc2cc(C)n(C)n2)cc1Nc1cccc(-c2ncc(C)s2)c1OC [Example 104]
[2]
  IC50: 40 nM

## CNC(=O)c1nnc(Nc2cc(C)nc(C)n2)cc1Nc1cccc(-c2cnn(C)c2)c1OC [Example 57]
[1]
  IC50: 6.01 nM
[2]
  IC50: 6.48 nM

## CNC(=O)c1nnc(NC(=O)C2CC2)cc1Nc1cccc(-c2cnn(CC(C)(C)O)c2)c1OC [Example 189]
[1]
  IC50: 150 nM
[2]
  IC50: 30 nM

## CNC(=O)c1nnc(Nc2ccccn2)cc1Nc1cccc(-c2ccn(C)n2)c1OC [Example 58]
[1]
  IC50: 20 nM
[2]
  IC50: 8.59 nM

## CNC(=O)c1nnc(NC(=O)C2CC2)cc1Nc1cccc(-c2ncn(CCF)n2)c1OC [Example 175]
[1]
  IC50: 20 nM
[2]
  IC50: 10 nM

## CNC(=O)c1nnc(Nc2cc(C(C)O)ccn2)cc1Nc1cccc(-c2cscn2)c1OC (stereo not drawn) [Example 157]
[1]
  IC50: 230 nM
[2]
  IC50: 150 nM

## CNC(=O)c1nnc(Nc2ccncn2)cc1Nc1cccc(-c2ncccn2)c1OC [Example 118]
[1]
  IC50: 30 nM
[2]
  IC50: 20 nM

## CNC(=O)c1nnc(Nc2cc(C)n(C)n2)cc1Nc1cccc(-c2nccs2)c1OC [Example 107]
[1]
  IC50: 90 nM
[2]
  IC50: 140 nM

## [2H]C([2H])([2H])NC(=O)c1nnc(Nc2ccccn2)cc1Nc1cccc(C(=O)NCCOC)c1OC [Example 164]
[1]; KIT225
  IC50: 300 nM
[2]; KIT225
  IC50: 170 nM

## CNC(=O)c1nnc(Nc2cc(C)c(F)cn2)cc1Nc1cccc(-c2cscn2)c1OC [Example 129]
[1]
  IC50: 20 nM
[2]
  IC50: 10 nM

## [2H]C([2H])([2H])NC(=O)c1nnc(NC(=O)C2CC2)cc1Nc1cccc(-c2cc[nH]n2)c1OC [Example 195]
[1]; KIT225
  IC50: 10 nM
[2]; KIT225
  IC50: 20 nM

## CNC(=O)c1nnc(Nc2cc(C)nc(C)n2)cc1Nc1ccccc1S(C)(=O)=O [Example 7]
[1]
  IC50: 70 nM
[2]
  IC50: 50 nM

## CNC(=O)c1nnc(NC(=O)C2CC2)cc1Nc1cccc(-c2ncn(C)n2)c1OC [Example 67]
[1]
  IC50: 100 nM
[2]
  IC50: 70 nM

## CNC(=O)c1nnc(Nc2cc(C)c(F)cn2)cc1Nc1cccc(-c2ncc(C)s2)c1OC [Example 124]
[1]
  IC50: 700 nM
[2]
  IC50: 490 nM

## [2H]C([2H])([2H])NC(=O)c1nnc(NC(=O)C2CC2)cc1Nc1cccc(-c2cn[nH]c2)c1OC [Example 185]
[1]; KIT225
  IC50: 280 nM
[2]; KIT225
  IC50: 120 nM

## CNC(=O)c1nnc(Nc2ccccn2)cc1Nc1cccc(-n2cccn2)c1OC [Example 65]
[1]
  IC50: 60 nM
[2]
  IC50: 20 nM

## CNC(=O)c1cccc(Nc2cc(Nc3ccccn3)nnc2C(=O)NC)c1OC [Example 169]
[1]
  IC50: 40 nM
[2]
  IC50: 30 nM

## CNC(=O)c1nnc(NC(=O)C2CC2)cc1Nc1cccc(-c2nccs2)c1OC [Example 105]
[1]
  IC50: 180 nM
[2]
  IC50: 140 nM

## CNC(=O)c1nnc(Nc2cc(N3CCN(CCO)CC3)nc(C)n2)cc1Nc1cccc(-c2ncn(C)n2)c1OC [Example 99]
[1]
  IC50: 60 nM
[2]
  IC50: 20 nM

## CNC(=O)c1nnc(NC(=O)C2CC2)cc1Nc1cccc(-c2ncc(C)s2)c1OC [Example 101]
[1]
  IC50: 100 nM
[2]
  IC50: 60 nM

## CNC(=O)c1nnc(Nc2ccc(N3CCOCC3)cn2)cc1Nc1ccccc1S(C)(=O)=O [Example 29]
[1]
  IC50: 140 nM
[2]
  IC50: 80 nM

## CNC(=O)c1nnc(Nc2cc(C)c(C)cn2)cc1Nc1ccccc1S(C)(=O)=O [Example 20]
[1]
  IC50: 20 nM
[2]
  IC50: 20 nM

## CNC(=O)c1nnc(NC(=O)C2CC2)cc1Nc1cccc(-c2cnn(CC(F)F)c2)c1OC [Example 187]
[1]
  IC50: 50 nM

## CNC(=O)c1nnc(NC(=O)C2CC2)cc1Nc1cccc(-c2ncn(C)n2)c1OC [Example 52]
[1]
  IC50: 10 nM
[2]
  IC50: 9.21 nM

## CNC(=O)c1nnc(Nc2ccccn2)cc1Nc1cccc(-c2noc(C)n2)c1OC [Example 206]
[1]; KIT225
  IC50: 4.38 nM
[2]; KIT225
  IC50: 0.712 nM

## CNC(=O)c1nnc(Nc2ccc(F)cn2)cc1Nc1ccccc1S(C)(=O)=O [Example 6]
[1]
  IC50: 190 nM
[2]
  IC50: 110 nM

## [2H]C([2H])([2H])NC(=O)c1nnc(Nc2ccccn2)cc1Nc1cccc(-c2nnc[nH]2)c1OC [Example 172]
[1]; KIT225
  IC50: 5.45 nM
[2]; KIT225
  IC50: 6.19 nM

## CNC(=O)c1nnc(Nc2cc(C)nc(C)n2)cc1Nc1cccc(-c2ncccn2)c1OC [Example 121]
[1]
  IC50: 2.64 nM
[2]
  IC50: 2.33 nM

## CNC(=O)c1nnc(Nc2ccccn2)cc1Nc1cccc(-c2ccncn2)c1OC [Example 96]
[1]
  IC50: 40 nM
[2]
  IC50: 7.38 nM

## CNC(=O)c1nnc(Nc2ccccn2)cc1Nc1cccc(-c2ncn(C)n2)c1SC [Example 205]
[1]; KIT225
  IC50: 140 nM
[2]; KIT225
  IC50: 50 nM

## C#Cc1cccc(Nc2cc(NC(=O)C3CC3)nnc2C(=O)NC)c1OC [Example 139]
[1]
  IC50: 210 nM
[2]
  IC50: 150 nM

## CNC(=O)c1nnc(Nc2ccccn2)cc1Nc1cccc(-c2nnc[nH]2)c1SC [Example 204, N-methyl-4-((2-(methylthio)-3-(4H-1,2,4-triazol-3-yl)phenyl)amino)-6-(pyridin-2-ylamino)pyridazine-3-carboxamide]
[1]; KIT225
  IC50: 70 nM
[2]; KIT225
  IC50: 20 nM

## CNC(=O)c1nnc(Nc2cnc(C)cn2)cc1Nc1cccc(-c2ncccn2)c1OC [Example 113]
[1]
  IC50: 30 nM
[2]
  IC50: 4.41 nM

## CNC(=O)c1nnc(Nc2cc(OC)ccn2)cc1Nc1cccc(-c2ncn(C)n2)c1OC [Example 133]
[1]
  IC50: 8.03 nM
[2]
  IC50: 3.81 nM

## CNC(=O)c1nnc(NC(=O)C2CC2)cc1Nc1cccc(-c2cccnn2)c1OC [Example 78]
[1]
  IC50: 320 nM

## CNC(=O)c1nnc(NC(=O)C2CC2F)cc1Nc1ccccc1S(C)(=O)=O (stereo not drawn) [Example 28]
[1]
  IC50: 420 nM
[2]
  IC50: 610 nM

## CNC(=O)c1nnc(NC(=O)C2CC2)cc1Nc1cccc(-c2ccncn2)c1OC [Example 86]
[1]
  IC50: 30 nM

## CNC(=O)c1nnc(Nc2cc(C)n(C)n2)cc1Nc1cccc(-c2nnc(C)o2)c1OC [Example 152]
[1]
  IC50: 130 nM
[2]
  IC50: 30 nM

## CCc1ccnc(Nc2cc(Nc3cccc(-c4ncn(C)n4)c3OC)c(C(=O)NC)nn2)c1 [Example 128]
[1]
  IC50: 6.08 nM
[2]
  IC50: 3.17 nM

## CNC(=O)c1nnc(Nc2cc(C)c(C#N)cn2)cc1Nc1ccccc1S(C)(=O)=O [Example 26]
[1]
  IC50: 60 nM
[2]
  IC50: 50 nM

## CNC(=O)c1nnc(Nc2cc(C)ncn2)cc1Nc1ccccc1S(C)(=O)=O [Example 8]
[1]
  IC50: 130 nM
[2]
  IC50: 90 nM

## CCc1ccnc(Nc2cc(Nc3ccccc3S(C)(=O)=O)c(C(=O)NC)nn2)c1 [Example 36]
[1]
  IC50: 110 nM
[2]
  IC50: 30 nM

## [2H]C([2H])([2H])NC(=O)c1nnc(NC(=O)C2CC2)cc1Nc1cccc(-c2nc(C)no2)c1OC [Example 162, 6-(cyclopropanecarboxamido)-4-((2-methoxy-3-(3-methyl-1,2,4-oxadiazol-5-yl)phenyl)amino)-N-trideuteromethylpyridazine-3-carboxamide]
[1]; KIT225
  IC50: 120 nM
[2]; KIT225
  IC50: 60 nM

## CCc1cc(Nc2cc(Nc3ccccc3S(C)(=O)=O)c(C(=O)NC)nn2)nc(C)n1 [Example 47]
[1]
  IC50: 50 nM
[2]
  IC50: 20 nM

## CNC(=O)c1nnc(Nc2cc(CO)ccn2)cc1Nc1ccccc1S(C)(=O)=O [Example 34]
[1]
  IC50: 190 nM
[2]
  IC50: 170 nM

## CNC(=O)c1nnc(Nc2ccccn2)cc1Nc1cccc(-c2ncccn2)c1OC [Example 91]
[1]
  IC50: 20 nM
[2]
  IC50: 3.62 nM

## CNC(=O)c1nnc(Nc2ccccn2)cc1Nc1cccc(-c2nnc(C)o2)c1SC [Example 203]
[1]
  IC50: 310 nM
[2]
  IC50: 110 nM

## CNC(=O)c1nnc(NC(=O)C2CC2)cc1Nc1cccc(-c2nnc(C)o2)c1OC [Example 149]
[1]
  IC50: 170 nM
[2]
  IC50: 50 nM

## [2H]C([2H])([2H])NC(=O)c1nnc(NC(=O)C2CC2)cc1Nc1cccc(-c2nc(C)n(C)n2)c1OC [Example 181]
[1]; KIT225
  IC50: 40 nM
[2]; KIT225
  IC50: 20 nM

## CNC(=O)c1nnc(Nc2cc(F)ccn2)cc1Nc1ccccc1S(C)(=O)=O [Example 9]
[1]
  IC50: 60 nM
[2]
  IC50: 90 nM

## CNC(=O)c1nnc(Nc2ccccn2)cc1Nc1cccc(C(=O)NC2CC2)c1OC [Example 165]
[1]
  IC50: 340 nM
[2]
  IC50: 230 nM

## CCn1cnc(-c2cccc(Nc3cc(Nc4ccccn4)nnc3C(=O)NC)c2OC)n1 [Example 177]
[1]
  IC50: 1.52 nM
[2]
  IC50: 1.63 nM

## CCc1cc(Nc2cc(Nc3cccc(-c4ncn(C)n4)c3OC)c(C(=O)NC)nn2)ncn1 [Example 68]
[1]
  IC50: 6.56 nM
[2]
  IC50: 3.45 nM

## CNC(=O)c1nnc(NC(=O)C2CC2)cc1Nc1cccc(-c2cn(C)nn2)c1OC [Example 138]
[1]
  IC50: 30 nM
[2]
  IC50: 30 nM

## CNC(=O)c1nnc(NC(=O)C2CC2)cc1Nc1cccc(-c2nccc(C)n2)c1OC [Example 82]
[1]
  IC50: 110 nM

## CNC(=O)c1nnc(NC(=O)C2CC2)cc1Nc1cccc(-c2cnccn2)c1OC [Example 75]
[1]
  IC50: 70 nM

## CNC(=O)c1nnc(NC(=O)C2CC2)cc1Nc1cccc(-c2ccccn2)c1OC [Example 72]
[1]
  IC50: 130 nM

## CNC(=O)c1nnc(NC(=O)C2CC2)cc1Nc1cccc(-c2ncccn2)c1OC [Example 70]
[1]
  IC50: 20 nM
